Data from patent US20120020915A1, “Compounds and Methods for Treating Cancer and Diseases of the Central Nervous System” (QUEENS UNIVERSITY AT KINGSTON, priority 2007, published 2012).
Counter-ions that a name gives are not always drawn. Like-named read-outs stand apart in the source and are kept apart here.

Columns and labels:
HO-2 (rat brain) = biological target: T1, HO-2 (rat brain) (Rattus norvegicus, UniProt P23711); experiment: HO enzymatic activity, rat brain microsomal fraction (CO formation from methemalbumin); format: biochemical
T1 construct: brain microsomes were used as a source of HO-2; from tissue; host or cells: brain microsomal fraction of adult male Sprague-Dawley rats
T1 sequence (P23711 1-315): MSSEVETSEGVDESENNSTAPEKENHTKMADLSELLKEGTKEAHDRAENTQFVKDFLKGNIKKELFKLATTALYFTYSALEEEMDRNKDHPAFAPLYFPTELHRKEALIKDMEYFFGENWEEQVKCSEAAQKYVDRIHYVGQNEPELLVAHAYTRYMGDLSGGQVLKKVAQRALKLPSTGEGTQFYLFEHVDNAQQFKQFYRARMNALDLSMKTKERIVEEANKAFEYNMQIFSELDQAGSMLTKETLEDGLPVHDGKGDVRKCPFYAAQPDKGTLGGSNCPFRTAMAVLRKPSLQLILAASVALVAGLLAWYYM
Method: (§1) Incubations for HO activity analysis were done under conditions for which the rate of CO formation (pmol CO×min^−1×mg protein^−1) was linear with respect to time and microsomal protein concentration. Briefly, reaction mixtures (150 μL) consisting of 100 mM phosphate buffer (pH 7.4), 50 μM methemalbumin, and 1 mg/mL protein were pre-incubated with the inhibitors at final concentrations ranging from 0.1-100 μM for 10 minutes at 37° C. Reactions were initiated by adding NADPH at a final concentration of 1 mM and incubations were performed for an additional 15 minutes at 37° C.
(§2) Incubations for HO activity analysis were done under conditions for which the rate of CO formation (pmol CO/mg protein/minute) was linear with respect to time and microsomal protein concentration. Briefly, reaction mixtures (150 μL) consisting of 100 mM phosphate buffer (pH 7.4), 50 μM methemalbumin and 1 mg/mL protein were pre-incubated with the vehicle (ethanol or water in which the inhibitors were dissolved), or inhibitors at final concentrations ranging from 0.1-1000 μM for 10 minutes at 37° C. Reactions were initiated by adding β-NADPH at a final concentration of 1 mM and incubations were carried out for an additional 15 minutes at 37° C. Reactions were stopped by instantly freezing the reaction mixture on pulverized dry ice and CO formation was measured by gas chromatography using a TA 3000R Process Gas Analyzer (Trace Analytical/Ametek, Newark, Del., USA).
(§3) The values on the abscissa represent the decimal logarithm of the inhibitor's concentration (in μM), whereas the values of the activity on the ordinate are expressed as a percentage of the control experiments without inhibitor.
(§4) The IC50 values for the replicate experiments were employed to generate the reported standard deviation value.

HO-1 (rat spleen) = biological target: T2, HO-1 (rat spleen) (Rattus norvegicus, UniProt P06762); experiment: HO enzymatic activity, rat spleen microsomal fraction (CO formation from methemalbumin); format: biochemical
T2 construct: Spleen microsomes were used as a source of HO-1; from tissue; host or cells: spleen microsomal fraction of adult male Sprague-Dawley rats
T2 sequence (P06762 1-289): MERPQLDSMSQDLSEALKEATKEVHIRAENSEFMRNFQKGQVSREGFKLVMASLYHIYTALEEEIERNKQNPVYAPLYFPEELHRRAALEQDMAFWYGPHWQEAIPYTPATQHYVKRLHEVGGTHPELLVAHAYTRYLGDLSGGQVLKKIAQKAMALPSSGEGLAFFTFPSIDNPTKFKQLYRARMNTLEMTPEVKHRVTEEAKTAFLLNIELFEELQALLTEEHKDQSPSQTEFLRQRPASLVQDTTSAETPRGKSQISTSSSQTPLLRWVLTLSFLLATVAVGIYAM
Method: as §1, §2, §3, §4

[1] = IC50 HO-2 (rat brain)/μM), CO formation from methemalbumin, mean ± SD of replicate experiments
[2] = IC50 HO-1 (rat spleen/μM), CO formation from methemalbumin, mean ± SD of replicate experiments
[3] = CO formation from methemalbumin, mean ± SD of replicate experiments, read-out: IC50 HO-1 (rat spleen/μM)
[4] = CO formation from methemalbumin, mean ± SD of replicate experiments, read-out: IC50 HO-2 (rat brain)/μM)
[5] = IC50 HO-2 (rat brain)/μM), average ± SD of replicate experiments

| SMILES | IC50 (HO-2 (rat brain); [1]) [µM] | IC50 (HO-1 (rat spleen); [2]) [µM] | IC50 (HO-1 (rat spleen); [3]) [µM] | IC50 (HO-2 (rat brain); [4]) [µM] | further results |
| --- | --- | --- | --- | --- | --- |
| Nc1ccccc1SC[C@@H]1CO[C@](CCc2ccc(Cl)cc2)(Cn2ccnc2)O1 [QC-3, (2S,4S)-2-[2-(4-chlorophenyl)ethyl]-2-[(1H-imidazol-1-yl)methyl]-4-[{(2-aminophenyl)thio}methyl]-1,3-dioxolane dihydrochloride] | 55 ± 26 | – | – | – | – |
| Cc1ccc(S(=O)(=O)OC[C@@H]2CO[C@](CCc3ccc(Cl)cc3)(Cn3ccnc3)O2)cc1 [QC-4, (2S,4S)-2-[2-(4-chlorophenyl)ethyl]-2-[(1H-imidazol-1-yl)methyl]-4-[(p-toluenesulfonyloxy)methyl]-1,3-dioxolane dihydrochloride] | 48 ± 6 | 19 ± 9 | – | – | – |
| Cc1ccc(S(=O)(=O)OC[C@@H]2CO[C@](CCc3ccc(Cl)cc3)(Cn3ccnc3)O2)cc1 [QC-6, (2S,4S)-2-[2-(4-chlorophenyl)ethyl]-2-[(1H-imidazol-1-yl)methyl]-4-[(p-toluenesulfonyloxy)methyl]-1,3-dioxolane] | 23 ± 6 | 21 ± 2 | – | – | – |
| Nc1cccc(SC[C@@H]2CO[C@](CCc3ccc(Cl)cc3)(Cn3ccnc3)O2)c1 [QC-7, (2S,4S)-2-[2-(4-chlorophenyl)ethyl]-2-[(1H-imidazol-1-yl)methyl]-4-[{(3-aminophenyl)thio}methyl]-1,3-dioxolane dihydrochloride] | 21 ± 1 | 1.5 ± 0.1 | – | – | – |
| COc1ccc(OC[C@H]2CO[C@](CCc3ccc(Cl)cc3)(Cn3ccnc3)O2)cc1 [QC-8, (2S,4S)-2-[2-(4-chlorophenyl)ethyl]-2-[(1H-imidazol-1-yl)methyl]-4-[(4-methoxyphenyloxy)methyl]-1,3-dioxolane hydrochloride] | – | – | 28 ± 15 | 29 ± 6 | – |
| O=C(CCc1ccc(Cl)cc1)Cn1ccnc1 [QC-9, 4-(4-chlorophenyl)-1-(1H-imidazol-1-yl)-2-butanone hydrochloride] | – | – | – | 43 ± 5 | – |
| Nc1cccc(SC[C@H]2CO[C@](CCc3ccc(Cl)cc3)(Cn3ccnc3)O2)c1 [QC-20, (2S,4R)-2-[2-(4-chlorophenyl)ethyl]-2-[(1H-imidazol-1-yl)methyl]-4-[{(3-aminophenyl)thio}methyl]-1,3-dioxolane hydrochloride] | – | 5.2 ± 0.4 | – | – | – |
| Cc1ccc(S(=O)(=O)OC[C@H]2CO[C@@](CCc3ccc(Cl)cc3)(Cn3ccnc3)O2)cc1 [QC-21, (2R,4R)-2-[2-(4-chlorophenyl)ethyl]-2-[(1H-imidazol-1-yl)methyl]-4-[(p-toluenesulfonyloxy)methyl]-1,3-dioxolane] | 23 ± 10 | 0.8 ± 0.3 | – | – | – |
| Nc1ccccc1SC[C@H]1CO[C@@](CCc2ccc(Cl)cc2)(Cn2ccnc2)O1 [QC-22, (2R,4R)-2-[2-(4-chlorophenyl)ethyl]-2-[(1H-imidazol-1-yl)methyl]-4-[{(2-aminophenyl)thio}methyl]-1,3-dioxolane dihydrochloride] | – | 87 ± 24 | – | – | – |
| COc1cccc(-c2nnn[nH]2)c1 [QC-28, 5-(3-methoxyphenyl)-1H-tetrazole] | – | – | > 100 | > 100 | – |
| Nc1cc(Cl)ccc1-c1nnn[nH]1 [QC-29, 5-(2-amino-4-chlorophenyl)-1H-tetrazole] | – | – | > 100 | > 100 | – |
| CCC(O)Cn1ccnc1 (stereo not shown) [QC-31, 1-(1H-imidazol-1-yl)butan-2-ol hydrochloride] | > 100 | 131 ± 38 | – | – | – |
| COc1ccc(CCC(O)Cn2ccnc2)cc1 (stereo not shown) [QC-33, 4-(4-methoxyphenyl)-1-(1H-imidazol-1-yl)butan-2-ol hydrochloride] | 6 ± 4 | 0.7 ± 0.1 | – | – | – |
| CCC(COC(C)=O)n1ccnc1 (stereo not shown) [QC-36, 1-acetoxy-2-(1H-imidazol-1-yl)-butane] | – | – | > 100 | > 100 | – |
| Fc1ccc(COC(CCc2ccc(Cl)cc2)Cn2ccnc2)cc1 (stereo not shown) [QC-37, 4-(4-Chlorophenyl)-2-(4-fluorobenzyloxy)-1-(1H-imidazol-1-yl)butane hydrochloride] | – | – | 0.9 ± 0.3 | 1 ± 0.01 | – |
| c1c[nH]cn1 [QC-43, Imidazole, reference compound] | > 100 | > 100 | – | – | – |
| Cc1ncc[nH]1 [QC-45, 2-methylimidazole, reference compound] | – | – | > 100 | > 100 | – |
| Oc1ccc(OC[C@H]2CO[C@@](CCc3ccc(Cl)cc3)(Cn3ccnc3)O2)cc1 [QC-46, (2R,4S)-4-{2-[2-(4-Chlorophenyl)ethyl]-2-imidazol-1-ylmethyl-[1,3]dioxolan-4-ylmethoxy}phenol hydrochloride] | – | – | 1.8 ± 0.5 | 7.1 ± 0.7 | – |

| SMILES | IC50 (HO-2 (rat brain); [1]) [µM] | IC50 (HO-1 (rat spleen); [2]) [µM] | IC50 (HO-1 (rat spleen); [3]) [µM] | IC50 (HO-2 (rat brain); [4]) [µM] | further results |
| --- | --- | --- | --- | --- | --- |
| O=C(CCc1ccc(Br)cc1)Cn1ccnc1 [QC-53, 4-(4-Bromophenyl)-1-(1H-imidazol-1-yl)-2-butanone hydrochloride] | 10 ± 5 | – | – | – | – |
| O=C(CCc1ccc(F)cc1)Cn1ccnc1 [QC-54, 4-(4-Fluorophenyl)-1-(1H-imidazol-1-yl)-2-butanone hydrochloride] | 2 ± 0.2 | – | – | – | – |
| Fc1ccc(CCC2(Cn3ccnc3)OCCO2)cc1 [QC-55, 1-((2-(2-(4-Fluorophenyl)ethyl)-1,3-dioxolan-2-yl)methyl)-1H-imidazole hydrochloride] | – | 4 ± 1 | – | – | – |
| O=C(CBr)CCc1ccc(Br)cc1 [QC-59, 1-bromo-4-(4-bromophenyl)butan-2-one] | – | – | 42 ± 5 | 125 ± 22 | – |
| Cc1nccn1CC(=O)CCc1ccc(Br)cc1 [QC-61, 4-(4-bromophenyl)-1-[(2-methyl)-1H-imidazol-1-yl]butan-2-one hydrochloride] | > 100 | > 100 | – | – | – |
| O=C(CCc1ccc(Br)cc1)Cn1cnc2ccccc21 [QC-62, 4-(4-bromophenyl)-1-(1H-benzimidazol-1-yl)butan-2-one hydrochloride] | > 100 | > 100 | – | – | – |
| O=C(CCc1ccc(Br)cc1)Cn1cncn1 [QC-64, 4-(4-bromophenyl)-1-[1,2,4]triazol-1-yl-butan-2-one hydrochloride] | 3 ± 2 | – | – | – | – |
| O=C(CCc1ccccc1)Cn1cncn1 [QC-86, 4-phenyl-1-[1,2,4]triazol-1-yl-butan-2-one hydrochloride] | – | – | – | 34 ± 3 | – |
| O=C(CCc1ccccc1)Cn1cccn1 [QC-87, 4-phenyl-1-pyrazol-1-yl-butan-2-one hydrochloride] | – | > 100 | – | – | – |
| OC(Cn1cncn1)(Cn1cncn1)c1ccc(F)cc1F [QC-90, Fluconazole, reference compound] | – | – | – | > 100 | – |
| O=C(CCc1ccccc1)Cn1ccnn1 [QC-91, 4-phenyl-1-(1H-[1,2,3]triazol-1-yl)butan-2-one] | – | – | 89 ± 1 | – | – |
| O=C(CCc1ccccc1)Cn1nccn1 [QC-101, 4-phenyl-1-[1,2,3]triazol-2-yl-butan-2-one] | – | – | > 100 | – | – |
| c1ccc(CCC2(Cn3cncn3)OCCO2)cc1 [QC-104, 2-(2-phenethyl)-2-{(1H-[1,2,4]triazol-1-yl)methyl}-1,3-dioxolane hydrochloride] | – | – | 14 ± 3 | – | – |
| Cl.Clc1ccc(CC[C@@]2(Cn3ccnc3)OC[C@@H](COc3ccc(-c4ccccc4)cc3)O2)cc1 [QC-129, (2R,4S)-1-{4-Biphenyl-4-yloxymethyl)-2-[2-(4-chlorophenyl)ethyl]-[1,3]dioxolan-2-ylmethyl}-1H-imidazole hydrochloride] | – | – | – | 43 ± 3 | – |
| CC(C)(C(=O)c1ccccc1)n1ccnc1 [QC-187, 2-Imidazol-1-yl-2-methyl-1-phenyl-propan-1-one] | – | – | – | – | IC50 (HO-1 (rat spleen); IC50 HO-1 (rat spleen/μM), average ± SD of replicate experiments): > 100 µM |
| O=C(Cn1ccnc1)c1ccc(Cl)c(Cl)c1 [QC-189, 1-(3,4-Dichlorophenyl)-2-imidazol-1-yl-ethanone] | – | – | – | – | IC50 (HO-2 (rat brain); [5]): 4.7 ± 0.7 µM |
| O=C(/C=C/c1ccccc1)CCn1ccnc1 [QC-223, 5-(1H-Imidazol-1-yl)-1-phenyl-pent-1-en-3-one hydrochloride] | – | – | – | – | IC50 (HO-2 (rat brain); [5]): 31 ± 12 µM |
